Data published in US20130072506A1, “6,8-DISUBSTITUTED PURINE COMPOSITIONS” (priority 2011, published 2013).
Read-outs that look alike come from different tables or passages of the source.

Legend:
Assay in all cases: In vitro cytotoxic activity (metabolisation of Calcein AM)
Format in all cases: cell-based, human
melanoma cell line G-361 = settings: G-361 cells, 72 hours incubation, called GI50, read-out: Cell line tested/IC50 (μmol/L) G-361
Text: (§1) In vitro Cytotoxic Activity (Metabolisation of Calcein AM). Because toxic compounds negatively influence metabolic processes of cells, many standard cytotoxicity assays are based on measurement of metabolisation rate of various artificial substrates. Resulting product is then quantified, for example, by means of spectrometry. The assays can be easily modified for use in 96-well plates. For evaluation of cytotoxicity of the 6,8-disubstituted purines of this invention, a microtiter assay based on quantification of metabolisation of Calcein AM was used. The assay is widely used in drug screening programs and in chemosensitivity testing. In live cells, Calcein AM is enzymatically hydrolysed and accumulation of resulting calcein is manifested by green fluorescence.
(§2) The following human cell lines were used for routine screening of the compounds: normal diploid fibroblasts BJ, T-lymphoblastic leukemia cell line CEM, promyelocytic leukemia cell line HL-60, erytroid leukemia cell line K-562, breast carcinoma cell line MCF-7, osteosarcoma cell line HOS and melanoma cell line G-361. The cells were maintained in Nunc/Corning 80 cm^2 plastic tissue culture flasks and cultured in cell culture medium (DMEM with 5 g/l glucose, 2 mM glutamine, […] penicillin, 100 mmg/ml streptomycin, 10% fetal calf serum and sodium bicarbonate).
(§3) The cell suspensions were prepared and diluted according to the particular cell type and the expected target cell density (2.500-30.000 cells per well based on cell growth characteristics) and pipetted (80 μl) into 96-well plates. Inoculates were allowed a pre-incubation period of 24 hours at 37° C. and 5% CO2 for stabilization. Tested compound was added in total volume of […] of water at time zero. Usually, test compound was evaluated at six 3-fold dilutions. In routine testing, the highest concentration tested was 100 μM, but it could have been adjusted because of limited solubility of a compound. All drug concentrations were tested in triplicates.
(§4) Incubations of cells with the test compounds lasted for 72 hours at 37° C., in 5% CO2 atmosphere and 100% humidity. At the end of incubation period Calcein AM in PBS was added into final concentration of 1 μg/ml. After another 1 hour of incubation fluorescence (FD) was measured with the Labsystem FIA Reader Fluoroscan Ascent (UK). Growth inhibition (GI) was estimated using the following equitation: GI=(mean FDdrug exposed wells−mean FDblank)/(mean FDcontrol wells−mean FDblank)×100%. The GI50 value, the drug concentration causing 50% reduction of Calcein AM conversion, was calculated from the obtained dose response curves.

[1] = test system: osteosarcoma cell line HOS; settings: HOS cells, 72 hours incubation, called GI50, read-out: Cell line tested/IC50 (μmol/L) HOS
Text: as §1, §2, §3, §4

[2] = test system: T-lymphoblastic leukemia cell line CEM; settings: CEM cells, 72 hours incubation, called GI50, read-out: Cell line tested/IC50 (μmol/L) CEM
Text: as §1, §2, §3, §4

[3] = test system: normal diploid fibroblasts BJ; settings: BJ cells, 72 hours incubation, called GI50, read-out: Cell line tested/IC50 (μmol/L) BJ
Text: as §1, §2, §3, §4

[4] = test system: breast carcinoma cell line MCF-7; settings: MCF7 cells, 72 hours incubation, called GI50, read-out: Cell line tested/IC50 (μmol/L) MCF7
Text: as §1, §2, §3, §4

[5] = test system: erytroid leukemia cell line K-562; settings: 72 hours incubation, called GI50, read-out: Cell line tested/IC50 (μmol/L) K-562
Text: as §1, §2, §3, §4

[6] = Homo sapiens, K562, K-562 cells

Measured: IC50

CC(=CCNc1ncnc2nc(Br)[nH]c12)CO [Compound 3]
> 50 µmol/L: melanoma cell line G-361 | [1] | [2] | [3] | [4] | [5]; K-562 cells

Nc1nc2ncnc(NCc3ccccc3Br)c2[nH]1 [Compound 93]
> 50 µmol/L: melanoma cell line G-361 | [1] | [2] | [3] | [4] | [5]; K-562 cells

COc1nc2ncnc(NCC=C(C)CO)c2[nH]1 [Compound 122]
> 50 µmol/L: melanoma cell line G-361 | [1] | [2] | [3] | [4] | [5]; K-562 cells

COc1nc2ncnc(NCc3cccc(OC)c3O)c2[nH]1 [Compound 130]
> 50 µmol/L: melanoma cell line G-361 | [1] | [2] | [3] | [4] | [5]; K-562 cells

Sc1nc2ncnc(NCc3ccco3)c2[nH]1 [Compound 137, 6-furfurylamino-8-mercaptopurine]
> 50 µmol/L: melanoma cell line G-361; Homo sapiens | [1]; Homo sapiens | [2]; Homo sapiens, CCRF-CEM | [3]; Homo sapiens | [4]; Homo sapiens | [5]; [6]

CSc1nc2ncnc(NCc3ccco3)c2[nH]1 [Compound 147, 6-furfurylamino-8-methylthiopurine]
> 50 µmol/L: melanoma cell line G-361; Homo sapiens | [1]; Homo sapiens | [2]; Homo sapiens, CCRF-CEM | [3]; Homo sapiens | [4]; Homo sapiens | [5]; [6]

Oc1nc2ncnc(NCc3ccco3)c2[nH]1 [Compound 166]
> 50 µmol/L: melanoma cell line G-361 | [1] | [2] | [3] | [4] | [5]; K-562 cells

CC(=CCNc1ncnc2nc(O)[nH]c12)CO [Compound 168]
> 50 µmol/L: melanoma cell line G-361 | [1] | [2] | [3] | [4] | [5]; K-562 cells

Oc1cccc(CNc2ncnc3nc(O)[nH]c23)c1 [Compound 169]
> 50 µmol/L: melanoma cell line G-361 | [1] | [2] | [3] | [4] | [5]; K-562 cells

COc1cccc(CNc2ncnc3nc(O)[nH]c23)c1 [Compound 170]
> 50 µmol/L: melanoma cell line G-361 | [1] | [2] | [3] | [4] | [5]; K-562 cells

Oc1nc2ncnc(Nc3ccccc3)c2[nH]1 [Compound 171]
> 50 µmol/L: melanoma cell line G-361 | [1] | [2] | [3] | [4] | [5]; K-562 cells

COc1cccc(Nc2ncnc3nc(O)[nH]c23)c1 [Compound 172]
> 50 µmol/L: melanoma cell line G-361 | [1] | [2] | [3] | [4] | [5]; K-562 cells

N#Cc1nc2ncnc(NCc3ccco3)c2[nH]1 [Compound 173]
> 50 µmol/L: melanoma cell line G-361 | [1] | [2] | [3] | [4] | [5]; K-562 cells

NCc1nc2ncnc(NCc3ccco3)c2[nH]1 [Compound 180]
> 50 µmol/L: melanoma cell line G-361 | [1] | [2] | [3] | [4] | [5]; K-562 cells

NCc1nc2ncnc(NCc3cccc(F)c3)c2[nH]1 [Compound 182]
> 50 µmol/L: melanoma cell line G-361 | [1] | [2] | [3] | [4] | [5]; K-562 cells

COc1cccc(CNc2ncnc3nc(CN)[nH]c23)c1 [Compound 183]
> 50 µmol/L: melanoma cell line G-361 | [1] | [2] | [3] | [4] | [5]; K-562 cells

NCc1nc2ncnc(Nc3ccccc3)c2[nH]1 [Compound 184]
> 50 µmol/L: melanoma cell line G-361 | [1] | [2] | [3] | [4] | [5]; K-562 cells

COc1ccccc1Nc1ncnc2nc(CN)[nH]c12 [Compound 185]
> 50 µmol/L: melanoma cell line G-361 | [1] | [2] | [3] | [4] | [5]; K-562 cells

COc1cccc(Nc2ncnc3nc(CN)[nH]c23)c1 [Compound 186]
> 50 µmol/L: melanoma cell line G-361 | [1] | [2] | [3] | [4] | [5]; K-562 cells

COC(=O)c1nc2ncnc(NCc3ccco3)c2[nH]1 [Compound 187, 6-furfurylamino-8-(methoxycarbonyl)purine]
> 50 µmol/L: melanoma cell line G-361; Homo sapiens | [1]; Homo sapiens | [2]; Homo sapiens, CCRF-CEM | [3]; Homo sapiens | [4]; Homo sapiens | [5]; [6]

CCOC(=O)c1nc2ncnc(NCc3ccco3)c2[nH]1 [Compound 194, 6-furfurylamino-8-(ethoxycarbonyl)purine]
> 50 µmol/L: melanoma cell line G-361; Homo sapiens | [1]; Homo sapiens | [2]; Homo sapiens, CCRF-CEM | [3]; Homo sapiens | [4]; Homo sapiens | [5]; [6]

O=C(O)c1nc2ncnc(NCc3ccco3)c2[nH]1 [Compound 201]
> 50 µmol/L: melanoma cell line G-361 | [1] | [2] | [3] | [4] | [5]; K-562 cells

NCCCNc1nc2ncnc(NCc3ccco3)c2[nH]1 [Compound 208, 6-furfurylamino-8-(aminopropylamino)purine]
> 50 µmol/L: melanoma cell line G-361; Homo sapiens | [1]; Homo sapiens | [2]; Homo sapiens, CCRF-CEM | [3]; Homo sapiens | [4]; Homo sapiens | [5]; [6]
